Laboratory results: US11174249B2, “Cooling composition” (FIRMENICH SA, priority 2017, dated 2021)

Test: Solubility of compound of formula (I) in flavor solvents (Crystalline PV instrument, temperature solubility curve)
Type: physicochemical
Details: 22° C.
Protocol: A precise amount of the powder was weighed into a transparent 8 mL tube, 3 g of solvent was added, and the tube was sealed with a cap equipped with an integrated overhead stirrer. The tube was immediately transferred to a Crystalline PV instrument (Technobis Crystallization Systems, The Netherlands), and placed into a precooled reactor at 3° C. The sample was heated and stirred in the reactor at a rate of 0.1° C./min up to 60° C. Each reactor of the Crystalline PV instrument is equipped with an LED sensor and a digital camera, and data is acquired as real-time transmittance to detect turbidity or as video images for visualization. The solubility temperature is reached when all particles have dissolved. In order to establish a temperature solubility curve, at least 4 samples with different concentrations are measured. The data are fitted to an exponential curve according to the model of Hoffmann, and solubility as a function of temperature can be calculated by extrapolation. Under this method, the solubility of N-(1H-pyrazol-3-yl)-N-(thiophen-2-ylmethyl)-2-(p-tolyloxy)acetamide in different solvents, which could be used in flavor application, was measured.

Row | Solubility (in Augeo Clean Multi) | Solubility (in Dowanol TPM) | Solubility (in Ethanol abs.) | Solubility (in Ethyl lactate) | Solubility (in Mint piperita) | Solubility (in PG) | Solubility (in triacetin) | Solubility (in triethyl citrate) | SMILES
1 | 5.7% | 5.4% | 3.3% | 8.6% | 2.1% | 0.4% | 1.2% | 3.1% | Cc1ccc(OCC(=O)N(Cc2cccs2)c2ccn[nH]2)cc1 [N-(1H-pyrazol-3-yl)-N-(thiophen-2-ylmethyl)-2-(p-tolyloxy)acetamide]
2 |  |  |  | 26.1% |  |  |  |  | CCc1ccc(OCC(=O)N(Cc2cccs2)c2cc[nH]n2)cc1 [2-(4-ethylphenoxy)-N-(1H-pyrazol-3-yl)-N-(thiophen-2-ylmethyl)acetamide]
